The results in this text go back to US7094930B2, “Pharmaceutically acceptable salts of sertraline and pharmaceutical compositions thereof” (Pfizer Inc, priority 2003, dated 2006).

Common to all, as to format: physicochemical
A short description of one series: aqueous solubility.
Another series in a line: pH in aqueous solution. Particulars: (native) pH of the aqueous solution of the salt.
Series [1] is described as follows: hygroscopicity at relative humidity.

Structures can show the parent of a compound that is named as a salt.

As usually defined, the aqueous solubility is the concentration that dissolves in the medium under given conditions. A higher aqueous solubility goes with much dissolved substance. In the series “aqueous solubility”, `CN[C@H]1CC[C@@H](c2ccc(Cl)c(Cl)c2)c2ccccc21` [sertraline (−)-camphor-10-sulfonic acid salt] [(−)-Camphor-10-sulfonic Acid Salt of Sertraline] yielded an aqueous solubility of 1500 µg/mL. Also, in the series “pH in aqueous solution”, the “pH in aqueous solution” value came out at 4.6. Also, the hygroscopicity entry in series [1] (at 100% relative humidity) is on record as “approximately 0.4%”.

In turn, `CN[C@H]1CC[C@@H](c2ccc(Cl)c(Cl)c2)c2ccccc21` [sertraline L-tartaric acid salt, L-Tartaric Acid Salt of Sertraline] had an aqueous solubility in “aqueous solubility” of 4800 µg/mL. The “pH in aqueous solution” value in the series “pH in aqueous solution” amounted to 3.0. Also, the hygroscopicity entry in series [1] (at 100% relative humidity) is reported as “less than 0.1%”.

`CN[C@H]1CC[C@@H](c2ccc(Cl)c(Cl)c2)c2ccccc21` [sertraline benzenesulfonic acid salt, Benzenesulfonic Acid Salt of Sertraline]: the aqueous solubility in the series “aqueous solubility” was 900 µg/mL. Further, in “pH in aqueous solution”, the “pH in aqueous solution” value is reported as 4.6. In addition, the hygroscopicity result in series [1] (at 90% relative humidity) is “approximately 0.3%”.

In “aqueous solubility”, `CN[C@H]1CC[C@@H](c2ccc(Cl)c(Cl)c2)c2ccccc21` [sertraline benzoic acid salt, Benzoic Acid Salt of Sertraline] came in with an aqueous solubility of 520 µg/mL. The “pH in aqueous solution” value in the series “pH in aqueous solution” is 5.2. Moreover, the hygroscopicity result in series [1] (at 100% relative humidity) was “approximately 0.1%”.

Take `CN[C@H]1CC[C@@H](c2ccc(Cl)c(Cl)c2)c2ccccc21` [sertraline fumaric acid salt, Fumaric Acid Salt of Sertraline]: the aqueous solubility in “aqueous solubility” was 2800 µg/mL. For the same molecule, in the series “pH in aqueous solution”, the “pH in aqueous solution” value stood at 3.4. In series [1] (at 90% relative humidity), the hygroscopicity result is on record as “approximately 0.3%”.

`CN[C@H]1CC[C@@H](c2ccc(Cl)c(Cl)c2)c2ccccc21` [sertraline p-toluenesulfonic acid salt, P-Toluenesulfonic Acid Salt of Sertraline]: the aqueous solubility in “aqueous solubility” was found to be 400 µg/mL. Also, the “pH in aqueous solution” value in “pH in aqueous solution” worked out at 4.1. Moreover, the hygroscopicity result in series [1] (at 90% relative humidity) was “approximately 0.1%”.
